Assay results from PubChem BioAssay AID1159565 (GlaxoSmithKline (GSK), 2015).
Activity calls are given as the source filed them. The rule behind the calls is not given here.

Test system: T. cruzi-infected H9C2 cardiomyocytes, high-content imaging
Experiment: intracellular T. cruzi amastigote inhibition, imaging, H9C2 host cardiomyocytes, host toxicity (AID 1159565);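 note: infected cells incubated 72 h after plating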
[1] = measured here: H9C2 host cell toxicity
[2] = measured here: amastigotes per cell

Row | Compound | IC50 | IC50 [1] [µM] | IC50 [2] [µM]
1 | Cc1ccc(CNC2CCN(C[C@@H]3Cn4c(=O)ccc5ccc(=O)n3c54)CC2)cc1F | 1.3 µM | > 50 | 1
2 | CCn1c(-c2nonc2N)nc2c([C@@H](C)O)ncc(O[C@H](CN)c3ccccc3)c21 | 10 µM | 0.63 | 7.9
3 | CCN(C)Cc1ccc(N2CCC(NS(=O)(=O)c3ccc4c(c3)CCO4)CC2)nc1 | 1.3 µM | > 50 | 1
4 | O=C(Nc1ccc(C(F)(F)F)cc1)NC1(C(=O)NCc2ccco2)CCCCC1 | > 50 µM (inactive) | > 50 | > 50
5 | CC(=O)Nc1ccc(Nc2nccc(-c3cnn4ncccc34)n2)cc1C(F)(F)F | 0.5 µM | 0.063 | 0.2
6 | O=C(CN1CCN(S(=O)(=O)c2cccc([N+](=O)[O-])c2)CC1)Nc1ccc(Oc2ccccc2)cc1 | 2.5 µM | > 50 | 1.3
7 | N#Cc1cccc(CN2CCC(c3nc(-c4ccc(C(F)(F)F)nc4)no3)CC2)c1 | 2 µM | > 50 | 2.5
8 | Cc1cc(Nc2cc(C3CC3)[nH]n2)nc(N2CCCC2)n1 | 0.1 µM | 0.25 | 0.079
9 | COc1ccc2nc(N(Cc3cccnc3)C(=O)C3CCC3)sc2c1 | 0.13 µM | > 50 | 0.1
10 | O=C(NCCc1nc(-c2ccc(F)c(F)c2)n[nH]1)C1CCCCC1 | 2.5 µM | > 50 | 1.6
11 | Cc1ccc(NC(=O)C(C)n2nc([N+](=O)[O-])c(Br)c2C)cc1Cl (stereo not given) | 6.3 µM | > 50 | 3.2
12 | CNC(=O)C1Cc2ccccc2N1C(=O)Cc1ccc(OC)cc1 (stereo not given) | > 50 µM (inactive) | > 50 | > 50
13 | O=C(N1CCc2ccccc2CC1)C1(C(=O)N2CCC(n3c(=O)[nH]c4ncccc43)CC2)CC1 | 0.79 µM | > 50 | 0.63
14 | COc1ccc(Nc2nccc(N(C)c3n[nH]c4c(F)cccc34)n2)cc1S(C)(=O)=O | 4 µM | 7.9 | 2
15 | CCN(Cc1ccncc1)Cc1ccc(NC(=O)c2cc(-c3ccc(F)cc3)n[nH]2)cc1 | 0.25 µM | > 50 | 0.25
16 | COc1ccccc1C1CC(c2ccc(NS(C)(=O)=O)cc2)=NN1C(=O)c1cccs1 (stereo not given) | > 50 µM (inactive) | > 50 | > 50
17 | CC(C)COC(=O)Nc1ccc(N2CCC(CNS(=O)(=O)c3ccccc3)CC2)c(F)c1 | 7.9 µM | > 79 | 7.9
18 | NC(N)=Nc1nc(-c2ccc(NC(N)=NCCN3CCCC3)cc2)cs1 | > 50 µM (inactive) | > 50 | > 50
19 | CCOc1ccccc1C(=O)Nc1nnc(-c2ccc3c(c2)OCO3)s1 | 0.079 µM | > 50 | 0.063
20 | COc1ccc([N+](=O)[O-])cc1NC(=O)c1cc(Cl)ccc1O | 16 µM | > 50 | 7.9
21 | CCCCc1cc(Nc2cc(C3CCC3)[nH]n2)nc(N2CCC2C(N)=O)n1 (stereo not given) | 3.2 µM | 0.79 | 1.6
22 | O=C(Nc1nc(-c2ccccn2)cs1)N1C[C@H]2C[C@@]2(c2ccccc2)C1 | 0.5 µM | 0.79 | 0.25
23 | O=C(Nc1n[nH]c(-c2ccccn2)n1)C1CC1c1ccccc1 (stereo not given) | 20 µM | > 50 | 16
24 | COCc1cnc2c(c1SCc1c(F)cccc1Cl)c(=O)n(C)c(=O)n2C | 4 µM | > 50 | 2.5

Row | Compound | IC50 | IC50 [1] [µM] | IC50 [2] [µM]
25 | O=C(NCc1ccc(Cl)cc1)C1CN(C(=O)c2ccc(F)cc2)CCS1 (stereo not given) | 40 µM | > 50 | 32
26 | COc1ccc(OC)c(S(=O)(=O)N(Cc2c(F)cccc2F)[C@@H]2CCN(C#N)C2)c1 | 13 µM | 16 | 6.3
27 | O=C(Nc1ccc(C(F)(F)F)cc1)Nc1cccc([N+](=O)[O-])c1 | 1.3 µM | 5 | 0.79
28 | Cc1cc(Nc2cc(C3CC3)[nH]n2)nc(N2CCC[C@H]2C(N)=O)n1 | 0.063 µM | 0.13 | 0.02
29 | COc1cc(-c2noc(CC#N)n2)ccc1OC(F)F | 40 µM | 32 | 25
30 | COc1ccc(CN2CCCCC2c2nc(-c3cccnc3)no2)cc1 (stereo not given) | 0.79 µM | > 50 | 0.63
31 | Cn1cc(CN2CCN(c3ccc4c(c3)CCN(C(=O)[C@H]3C[C@@H]3c3ccccc3)CC4)CC2)cn1 | 3.2 µM | 32 | 0.79
32 | COc1cnc2ccc(=O)n(CCN3CCC(NC/C=C/c4cc(F)ccc4F)CC3)c2c1 | 0.02 µM | 16 | 0.01
33 | COc1cc(-c2nc(N3CCOCC3)sc2-c2ccnc(NC3CCOCC3)n2)ccc1Cl | 0.16 µM | > 50 | 0.1
34 | CC(C(=O)Nc1ccccc1F)N(C)CC(=O)Nc1cccc2ccccc12 (stereo not given) | 0.5 µM | > 50 | 0.32
35 | O=C(Nc1nc2ccccc2[nH]1)c1c(O)c2cccc3c2n(c1=O)CC3 | 16 µM | 10 | 25
36 | COc1ccc(-c2cc(C)no2)cc1S(=O)(=O)Nc1ccc(C)c(C)c1 | 7.9 µM | 16 | 5
37 | c1ccc2[nH]c(-c3ccc(N4CCCC4)nc3)nc2c1 | 1.6 µM | > 50 | 1
38 | O=C(c1cccc(Nc2ncc(-c3ccc4c(c3)OCO4)cn2)c1)N1CCSC1 | 0.25 µM | 1 | 0.2
39 | Cc1ncsc1CNc1cnc(-c2ccc3c(c2)OCCO3)c(-c2cnn(C)c2)c1 | 40 µM | > 50 | 20
40 | O=C(Cn1cnc([N+](=O)[O-])n1)Nc1ccc(Cl)cc1C(=O)c1ccccc1 | 1.3 µM | > 50 | 0.32
41 | Cc1[nH]n2c(=O)c3c(nc2c1-c1ccc(F)cc1)CCCC3 | 2 µM | > 50 | 0.79
42 | CC1CN(S(=O)(=O)c2ccc(NC(=O)c3cc(C4CC4)nc4c3cnn4C(C)C)cc2)CC(C)O1 (stereo not given) | 0.79 µM | > 50 | 0.63
43 | Cn1cncc1CN1CCC2(CC1)COC(Cc1ccccc1)C2 (stereo not given) | 0.5 µM | > 50 | 0.32
44 | CCN(CC)S(=O)(=O)c1ccc(C)c(NC(=O)c2cc(Cl)c3c(c2)OCO3)c1 | > 50 µM (inactive) | 25 | > 50
45 | CNc1cc(C)nc(C2CN(C(=O)c3n[nH]c4ccccc34)CCO2)c1 (stereo not given) | 2.5 µM | > 50 | 0.79
46 | Cc1nn2c(NCCCO)c3c(nc2c1-c1cccs1)CCC3 | 50 µM | > 50 | 5
47 | COc1cccc(C(=O)[C@H]2C[C@@H]2CN(Cc2ccccn2)Cc2ccccn2)c1 | 1.3 µM | 20 | 0.79
48 | NC(=O)c1cc(F)ccc1Nc1nc(NC2CCC(O)CC2)ncc1Cl (stereo not given) | 5 µM | 1.6 | 1.6

Row | Compound | IC50 | IC50 [1] [µM] | IC50 [2] [µM]
49 | Cc1cc(Br)cc(C(=O)c2c(C(C)C)c(=O)[nH]c(=O)n2Cc2ccnc(N)c2)c1 | 0.32 µM | > 50 | 0.25
50 | OCCCNc1nc(Nc2ccncc2)nc2ccccc12 | 1.3 µM | > 50 | 0.2
51 | O=C(Nc1nc(-c2ccccn2)cs1)C1CCc2ccccc2C1 (stereo not given) | 2.5 µM | 4 | 2
52 | NCC(Cc1ccccc1)NC(=O)c1cnc(-c2c[nH]c3ncccc23)s1 (stereo not given) | > 50 µM (inactive) | 0.63 | 20
53 | COc1ccc(C(=O)N2CCC(Nc3cccnc3)C2)c(OC)n1 (stereo not given) | 0.79 µM | > 50 | 0.79
54 | C=CCN(Cc1cccs1)C(=O)CSc1nnc(-c2ccc3c(c2)OCO3)o1 | 0.63 µM | > 50 | 0.5
55 | CC(=O)Nc1ccc(-c2csc(NC(=O)c3ccc([N+](=O)[O-])s3)n2)cc1 | 0.13 µM | 5 | 0.1
56 | COC(=O)c1ccc(-c2cnc3ccc(NCc4ccccn4)nn23)cc1 | 7.9 µM | > 50 | 5
57 | CC(=O)Nc1ccc(-c2ccnc(Nc3cccc(C#N)c3)n2)cc1 | 6.3 µM | 13 | 3.2
58 | Cc1ccc(C)c(CN2C(=O)NC3(CCc4ccccc43)C2=O)c1 (stereo not given) | 20 µM | > 50 | 7.9
59 | CC(C)C[C@H](NC(=O)c1csc(-c2cccs2)n1)C(=O)NC1(C#N)CC1 | > 50 µM (inactive) | > 50 | 20
60 | O=C(Nc1nc2ccccc2[nH]1)c1ccc2nc[nH]c2c1 | > 50 µM (inactive) | > 50 | 50
61 | CCNc1cc(-c2ccccn2)nc(Nc2ccc(OC)cc2)n1 | 3.2 µM | 0.32 | 2.5
62 | O=C1CN(C(=O)c2cccc(Nc3ncc(-c4ccc5c(c4)OCO5)cn3)c2)CCN1 | 0.79 µM | 63 | 0.5
63 | C[C@@H](Oc1cc(-n2cnc3cc(N)ccc32)sc1C(N)=O)c1ccccc1Cl | 20 µM | 1 | 5
64 | Fc1ccccc1N1C[C@H]2CCN(c3cccnc3)C[C@H]2C1 | 0.2 µM | > 50 | 0.2
65 | O=c1cc(NCCCNCc2c[nH]c3ccc(Br)cc23)[nH]c2ccccc12 | > 50 µM (inactive) | > 50 | 32
66 | COc1cccc(CCNC(=O)C(c2cn[nH]c2)N2CCN(c3ccc(Cl)cc3)CC2)c1 (stereo not given) | 0.02 µM | 40 | 0.016
67 | Cc1cc(N(C)C)nc2ccc(Cc3cnc(N)nc3N)cc12 | 6.3 µM | > 50 | 3.2
68 | O=c1oc2ccccc2n1C1CCN(Cc2ccccc2-c2cccnc2)CC1 | 0.32 µM | > 50 | 0.4
69 | O=C(Nc1ccc(-c2nc3ccccc3c(=O)[nH]2)cc1)c1cccs1 | > 50 µM (inactive) | > 50 | > 50
70 | CC(C)Nc1nc(Cl)nc2ccccc12 | 10 µM | 7.9 | 4
